Experimental findings from patent US20250223626A1, “METHODS OF DIAGNOSING IBS-D AND SELECTION OF IBS-D TREATMENT” (priority 2022, published 2025) are described below.

“Also recorded” adds a separate entry of the source.

For assay [1] the following is noted: rats on HFD, 10 days of treatment, compared to controls on HFD (P=0.07).
Experimental: (§1) Therefore, HFD was used to assess the effects of persistent M. smithii elevation on stool consistency (stool wet weights). Sprague-Dawley rats were placed on a HFD (60% energy from fat [D12492; Research Diets, New Brunswick, NJ]) for 7 weeks. […] Stool collections were performed at baseline, after 7 weeks on HFD, and after the 10-day lovastatin/control treatments. Stool wet weights were determined. Stool and small bowel DNAs were extracted at euthanasia and the absolute abundance of M. smithii was determined by qPCR as described previously.
Assay [2] relates to Methanobrevibacter smithii. The conditions noted are these: rats on HFD, gavaged 10 days with 1.5 mg/ml, compared to controls (water).
Experimental: as §1

For the compound `CC[C@H](C)C(=O)O[C@H]1C[C@@H](C)C=C2C=C[C@H](C)[C@H](CC[C@@H](O)C[C@@H](O)CC(=O)O)[C@H]21` [lovastatin hydroxyacid], in assay [1], the “stool consistency (stool wet weight)” value is on record as “normalization”. As to `CC[C@H](C)C(=O)O[C@H]1C[C@@H](C)C=C2C=C[C@H](C)[C@H](CC[C@@H]3C[C@@H](O)CC(=O)O3)[C@H]21` [lovastatin lactone], the “stool consistency (stool wet weight)” value in assay [1] is “normalization”. The “M. smithii absolute load in the small bowel” value in assay [2] is “decreased; also recorded: reduction”.
